For this test, the target named is SaDUF62 (Salinispora arenicola, UniProt A8M783). Put plainly: biochemical.
Sequence of SaDUF62 (A8M783 whole entry): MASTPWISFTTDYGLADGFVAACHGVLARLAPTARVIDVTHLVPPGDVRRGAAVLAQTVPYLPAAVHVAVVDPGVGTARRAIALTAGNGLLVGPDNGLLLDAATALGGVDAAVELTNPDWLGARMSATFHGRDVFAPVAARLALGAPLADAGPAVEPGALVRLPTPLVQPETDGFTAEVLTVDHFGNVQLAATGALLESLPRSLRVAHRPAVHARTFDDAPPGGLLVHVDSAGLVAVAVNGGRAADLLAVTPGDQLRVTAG

For the compound `Cl` [chloride], the affinity corresponds to a Ki of 1 mM.

(Values after publication PMC2692205 (Chembiochem : a European journal of chemical biology, 2008).)
